The record followed here is US20090053168A1, “TREATMENTS OF B-CELL PROLIFERATIVE DISORDERS” (priority 2007, published 2009).

In one assay the test system is SU-DHL6 DLBCL cells. The assay is described as follows: Anti-proliferation assay (ATPLite, 72 h), SU-DHL6. The assay is classed as cell-based. To be noted: in combination with CGS-21680. A general note: ATP-based viability assays read luminescence as a measure of living cells.
The test system of the next assay is Karpas 422 DLBCL cells. The assay is described as follows: Anti-proliferation assay (ATPLite, 72 h), Karpas 422. The assay is classed as cell-based. Particulars: in combination with CGS-21680.
Another assay relates to OPM2 cells. The experiment in a line: Anti-proliferation assay (ATPLite, 72 h), OPM2. The assay is classed as cell-based, human. To be noted: in combination with CGS-21680; OPM-8.
In a further assay the test system is RPMI-8226 cells. The assay is described as follows: Anti-proliferation assay (ATPLite, 72 h), RPMI-8226. The format is cell-based. To be noted: combination with dexamethasone; Loewe-based Synergy Score; 72 h.
In the next assay the test system is MOLP-8 cells. The assay is described as follows: Anti-proliferation assay (ATPLite, 72 h), MOLP-8. To be noted: in combination with CGS-21680. The format is cell-based.
The subject of the next assay is ANBL-6 cells. The experiment in a line: Anti-proliferation assay (ATPLite, 72 h), ANBL-6. The assay is classed as cell-based. Particulars: in combination with CGS-21680.
The test system of a further assay is H929 cells. The experiment in a line: Anti-proliferation assay (ATPLite, 72 h), H929. The format is cell-based. Particulars: combination with dexamethasone; Loewe-based Synergy Score; 72 h.
The subject of another assay is KSM-12-PE cells. The experiment in a line: Anti-proliferation assay (ATPLite, 72 h), KSM-12-PE. The format is cell-based. To be noted: in combination with CGS-21680; KSM-12-PE.
In the next assay the test system is OCI-ly10 DLBCL cells. The experiment in a line: Anti-proliferation assay (ATPLite, 72 h), OCI-ly10. Particulars: in combination with CGS-21680. The format is cell-based.
For another assay, the system named is EJM cells. The experiment in a line: Anti-proliferation assay (ATPLite, 72 h), EJM. The assay is classed as cell-based. To be noted: in combination with CGS-21680.
The next assay relates to MM.1S cells. The assay is described as follows: Anti-proliferation assay (ATPLite, 72 h), MM.1S.
[1] abbreviates: Homo sapiens, MM1.S, read-out: percent inhibition of cell proliferation.

Turning to `COc1cc2c(cc1OC)-c1cc(=Nc3c(C)cc(C)cc3C)n(C)c(=O)n1CC2` [Trequinsin, 2,3,6,7-tetrahydro-9,10-dimethoxy-3-methyl-2-((2,4,6-trimethylphenyl)imino)-4H-pyrimido(6,1-a)isoquinolin-4-one], the synergy score was determined as 0.92 in the assay with SU-DHL6 DLBCL cells; 2.11 with Karpas 422 DLBCL cells; 4.74 in the assay on OPM2 cells; 4.7 in the assay with MOLP-8 cells; 4.55 with ANBL-6 cells; 2.44 with KSM-12-PE cells. Further, the synergy score came out at 1.64 with OCI-ly10 DLBCL cells; 4.81 in the assay on EJM cells; 6.71 in the assay with MM.1S cells (in combination with CGS-21680, MM.1S). Further, the “Synergy score with dexamethasone, RPMI-8226” value with RPMI-8226 cells came to 5.76. Besides, in the assay on H929 cells, the “Synergy score with dexamethasone, H929” value is 2.68. For the same molecule, the inhibition at 0.00462 µM with MM.1S cells (setting [1]) turned out to be 10%. For the same molecule, in the assay with MM.1S cells (setting [1]), the inhibition at 0.0139 µM worked out at 1.4%. Also, in the assay on MM.1S cells (setting [1]), the inhibition at 0.0416 µM was 5.5%. Besides, the inhibition at 0.374 µM in the assay with MM.1S cells (setting [1]) was -1.6%. Further, the inhibition at 1.12 µM in the assay with MM.1S cells (setting [1]) was -6.1%. Also, the inhibition at 3.37 µM with MM.1S cells (setting [1]) is 11%. Further, the inhibition at 10.1 µM in the assay with MM.1S cells (setting [1]) stood at 33%. Also, the “Synergy score with dexamethasone, MM.1S” value in the assay with MM.1S cells (combination with dexamethasone, Loewe-based Synergy Score, 72 h) was found to be 3.21.
